The source of these data is patent US20260234217A1, “USE OF BMP RECEPTOR ALK1 INHIBITORS IN OSTEOARTHRITIS THERAPIES” (The Regents of the University of California, priority 2023, published 2026).

Entries after “also recorded” stand apart in the source; their conditions may differ.

Assay [1] relates to BMP-9-induced BMP reporter activity by ALK5-deficient ATDC5 cells. The assay is described as follows: BMP-9-induced BMP signal luciferase reporter in ALK5-deficient chondrocytic cells. Format: cell-based, mouse. The following applies: in the presence of 2 ng/mL of rhBMP-9; read-out: median effective concentration (EC50) to block BMP activity in vitro. An excerpt: Ligands that bind to ALK1 at physiological concentrations are BMP9 and BMP10 (Chen et al, PNAS 2013). […] ActRIIB has 300-fold higher affinity for BMP9 than does ActRIIA (Townson et. al., J Biol Chem. 2012 Aug. 10; 287(33):27313-2). The formation of ALK1-ActRIIB complexes is associated with the elevation of levels of pSmad1/5-mediated BMP signaling in cartilage (Wang et al., PNAS 2009)[4]. […] Furthermore, since loss of ALK5 causes OA and ALK5 antagonizes ALK1, these above results provide evidence that blocking ALK1 signaling may prevent OA development.
As described herein, the ALK1 receptor normally binds to ALK5 and/or ActRIIA in healthy chondrocytes, but in OA conditions ALK5 expression levels decline in chondrocytes and ALK1 tends to complex with ActRIIB; this ALK1/ActRIIB complex has high affinity for BMP9 and BMP10. […] BMP signaling output is monitored by a BMP signal luciferase reporter plasmid which contains a Smad1/5/8 response element in the promoter region. The biological efficacy of ALK1 antagonists is measured by their ability to inhibit BMP-9-induced BMP reporter activity by ALK5-deficient chondrocytic cells, such as ALK5-deficient ATDC5 cells. […]
In general terms: A reporter such as luciferase makes a cellular process visible.

The target of assay [2] is T1, ALK3 (Homo sapiens, UniProt P36894). The assay is described as follows: kinase assay (biochemical IC50, literature). To be noted: concentration of 200 nM.
T1 sequence (P36894 24-532, species assumed): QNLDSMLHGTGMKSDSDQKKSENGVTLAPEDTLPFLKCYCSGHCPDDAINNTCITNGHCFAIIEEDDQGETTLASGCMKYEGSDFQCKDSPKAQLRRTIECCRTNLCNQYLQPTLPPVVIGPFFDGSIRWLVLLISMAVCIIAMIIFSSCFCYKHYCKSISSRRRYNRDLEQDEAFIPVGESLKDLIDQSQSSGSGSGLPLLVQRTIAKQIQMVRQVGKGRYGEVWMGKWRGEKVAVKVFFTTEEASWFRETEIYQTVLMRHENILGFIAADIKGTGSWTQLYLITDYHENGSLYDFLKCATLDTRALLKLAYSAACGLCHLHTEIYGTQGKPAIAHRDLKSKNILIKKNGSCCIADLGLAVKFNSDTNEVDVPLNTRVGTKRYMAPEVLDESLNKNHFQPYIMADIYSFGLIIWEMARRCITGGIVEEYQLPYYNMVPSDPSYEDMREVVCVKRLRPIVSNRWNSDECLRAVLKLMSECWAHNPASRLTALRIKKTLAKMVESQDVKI
The next assay has as its system Collagen-X (COL10). Description: Immunohistochemistry of articular cartilage in DMM mice. Format: in vivo, mouse. As for the experimental part: (§1) Mice (C57BL/6J) were purchased from The Jackson Laboratory. All mice were housed on a 12-hour light/dark cycle with unrestricted access to standard mouse food and water. The DMM model of injury induced OA was performed on mice at 12 weeks of age by opening the joint capsule and transecting the medial meniscotibial ligament in the right knee, destabilizing the medial meniscus(48). A sham operation was performed on the left knee of each mouse by observing the medial meniscotibial ligament but not transecting it. Mice were administered carprofen 5 mg/kg (Zoetis; 1041283) subcutaneously 30 minutes prior to surgery, immediately post-surgery, and 24 hours post-surgery to minimize pain.
(§2) Treatments were initiated either 1 day after DMM surgery once a week for 8 weeks, or 1 month after DMM surgery twice a week for 4 weeks. Mice were sacrificed at 20 weeks of age (2 months after surgery). To understand the level of articular cartilage damage 1 month after DMM surgery, a cohort of mice was sacrificed at 16 weeks old (FIG. 4).
(§3) Seven micrometer-thick representative sections were chosen for immunohistochemistry, using a standard protocol (35). Tissue sections were deparaffinized, rehydrated, and washed in sodium borohydride (Sigma-Aldrich; 480886). Sections were then incubated with hyaluronidase (Sigma-Aldrich; H3505) and blocked with 5% serum in 1% PBST. Tissue sections were treated with primary antibodies to mouse ALK1 (R&D; AF770), Phospho-SMAD1/5 (Cell Signaling Technology; 9516), Phospho-SMAD2 (Cell Signaling Technology; 3108), MMP13 (Abcam; ab260040), and COL10 (Abcam; […]) and incubated overnight. Sections were then treated with a dilution of secondary antibody goat anti-rabbit IgG (H+L) Cross-Adsorbed Secondary Antibody, Alexa Flour 488 (Invitrogen; A-11008) or donkey anti-goat IgG (H+L) Cross-Adsorbed Secondary Antibody, Alexa Flour 488 (Invitrogen; A11055) for 4 hours. Finally, sections were incubated with 0.1 ug/mL of DAPI for 10 minutes before being mounted with Fluoro-Gel (Electron Microscopy Sciences; 17985-31). Images were taken with the Nikon Eclipse Ti fluorescent microscope.

Assay [3] has as its system Matrix Metalloproteinase-13 (MMP13). The description is as above. Format: in vivo, mouse. As for the experimental part: as §1, §2, §3
In another assay the test system is pSMAD1/5. The description is as above. Type of assay: in vivo, mouse. The protocol: as §1, §2, §3
The test system of a further assay is pSMAD2/3. Described as above. Format: in vivo, mouse. As for the experimental part: as §1, §2, §3
Assay [4] concerns the target T1, ALK3. The following applies: kinase assay; cited from earlier work.
[5] abbreviates: treated 1 month after DMM surgery.
The mark [6] stands for this setting: treatment immediately after DMM surgery, week 8, listed as BMP-KI.
Setting [7] is: delayed administration (1 month after DMM surgery).
The mark [8] stands for this setting: treatment immediately after DMM surgery, week 8.

As usually defined, the IC50 is the concentration at which inhibition is half-maximal. For the molecule `COc1cc(-c2cc(-c3ccc(N4CCNCC4)cc3)cnc2C)cc(OC)c1OC` [LDN-214117], in assay [1], the EC50 is 40 nM. Moreover, the “effect on ALK3 at the injected concentration” value at ALK3 [2] is listed as below 25 % IC50. Besides, the “COL10 levels (percentage of cells expressing)” value in the assay with Collagen-X (COL10) (setting [5]) is “significantly decreased”. In addition, the “COL10 levels (percent of cells expressing)” value with Collagen-X (COL10) (setting [6]) is listed as “significantly decreases levels of expression; also recorded: visibly reduced”. Moreover, in assay [3] (setting [5]), the “MMP13 levels (percentage of cells expressing)” value is on record as “attenuated to those of healthy sham control AC”. In assay [3] (setting [6]), the “MMP13 levels (percent of cells expressing)” value is listed as “significantly decreases levels of expression; also recorded: visibly reduced”. In the assay with pSMAD1/5 (setting [7]), the “percentage of cells positive for pSMAD1/5” value was “reduced”. In addition, the “pSMAD1/5 expression in articular cartilage” value in the assay on pSMAD1/5 (setting [8]) was “reduced to normal levels”. Moreover, the “percent cells positive for pSMAD2/3” value in the assay with pSMAD2/3 (setting [7]) is given as “not rescued”. Besides, the “pSMAD2/3 expression in articular cartilage” value in the assay with pSMAD2/3 (setting [8]) was “not restored to normal levels”. Also, at ALK3 [4], the half-maximal inhibitory concentration (IC50) is 1170 nM.
